Publication PMC2652632 (Biochemistry, 2008)
“Also recorded” adds a separate entry of the source. Values belong to the compound of their own block, whether it stands above or below them.

Tests used:
IDE-CF [1] = molecular target: T1, IDE-CF (Homo sapiens, UniProt P14735, C110L/C171S/C178A/C257V/C414L/C573N/C590S/C789S/C812A/C819A/C904S/C966N/C974A); assay: Specific activity of IDE-CF with substrate V; type: biochemical; conditions: 0.5 μM fluorogenic substrate V
IDE-WT [2] = molecular target: T2, IDE-WT (Homo sapiens, UniProt P14735); assay: Specific activity of IDE-WT with substrate V; type: biochemical; conditions: 0.5 μM fluorogenic substrate V
T2 sequence (P14735 whole entry): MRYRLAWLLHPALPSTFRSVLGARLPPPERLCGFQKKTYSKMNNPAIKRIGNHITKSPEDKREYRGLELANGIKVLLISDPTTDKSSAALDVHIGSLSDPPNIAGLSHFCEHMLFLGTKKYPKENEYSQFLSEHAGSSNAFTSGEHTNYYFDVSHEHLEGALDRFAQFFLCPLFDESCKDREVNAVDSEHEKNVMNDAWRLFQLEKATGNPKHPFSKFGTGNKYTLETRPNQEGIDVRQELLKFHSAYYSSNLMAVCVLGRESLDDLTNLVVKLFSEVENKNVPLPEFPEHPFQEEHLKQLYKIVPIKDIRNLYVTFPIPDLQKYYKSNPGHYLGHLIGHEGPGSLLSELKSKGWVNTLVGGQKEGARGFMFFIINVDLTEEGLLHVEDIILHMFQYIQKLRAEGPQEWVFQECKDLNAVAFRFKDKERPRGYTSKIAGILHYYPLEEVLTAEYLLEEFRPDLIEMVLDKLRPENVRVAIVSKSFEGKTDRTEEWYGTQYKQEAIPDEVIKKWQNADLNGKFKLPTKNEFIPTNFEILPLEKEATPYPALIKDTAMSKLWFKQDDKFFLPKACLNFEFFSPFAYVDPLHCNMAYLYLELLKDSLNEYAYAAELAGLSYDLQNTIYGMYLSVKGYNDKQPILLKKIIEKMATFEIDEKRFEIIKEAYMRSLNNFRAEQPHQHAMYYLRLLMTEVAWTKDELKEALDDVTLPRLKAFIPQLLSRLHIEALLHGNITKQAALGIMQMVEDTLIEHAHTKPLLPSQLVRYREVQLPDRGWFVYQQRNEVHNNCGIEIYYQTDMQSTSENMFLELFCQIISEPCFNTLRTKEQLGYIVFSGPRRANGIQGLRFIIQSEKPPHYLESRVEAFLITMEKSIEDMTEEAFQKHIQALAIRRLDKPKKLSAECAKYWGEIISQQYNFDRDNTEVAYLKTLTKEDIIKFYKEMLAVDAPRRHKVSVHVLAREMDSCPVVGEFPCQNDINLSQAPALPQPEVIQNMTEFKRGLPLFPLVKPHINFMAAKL

IDE [3] = conditions: ref 16 (b4: ref 16, 17); cited from earlier work
IDE-CF-123 = assay: Sensitivity of IDE-CF-123 to NEM, GSNO and H2O2; type: biochemical, human; conditions: for inhibition by GSNO / H2O2 (in words): IDE-CF-123, substrate V or FAβB; for sensitivity to GSNO / H2O2 relative to IDE-WT (in words): IDE-CF-123 compared to IDE-WT
IDE-CF-4 = assay: Sensitivity of IDE-CF-4 to NEM, GSNO and H2O2; type: biochemical, human; conditions: for inhibition by GSNO / H2O2 (in words): IDE-CF-4, substrate V or FAβB
IDE-WT [4] = molecular target: T2, IDE-WT; assay: Sensitivity of IDE-WT to NEM, GSNO and H2O2; type: biochemical; conditions: for inactivation of IDE by NEM / H2O2 / GSNO (in words): substrates mimicking both Aβ and bradykinin
IDE-CF-A819C = assay: Sensitivity of IDE-CF-A819C to NEM, GSNO and H2O2; type: biochemical, human; conditions: for sensitivity to GSNO / H2O2 relative to IDE-WT (in words): IDE-CF-A819C compared to IDE-WT; for NEM sensitivity (in words): IDE-CF-A819C
IDE [5] = conditions: cited from earlier work
rat IDE = conditions: cited from earlier work
IDE-CF [6] = molecular target: T1, IDE-CF; assay: Sensitivity of cysteine-free IDE-CF to NEM, GSNO and H2O2; type: biochemical
IDE-WT-C819A = assay: NEM sensitivity of IDE-WT-C819A; type: biochemical, human; conditions: 0–1 mM NEM, substrate V, compared to IDE-CF4 and IDE-WT
IDE-CF-A812C = assay: NEM sensitivity of IDE-CF-A812C; type: biochemical, human; conditions: fully purified, 0.15, 0.6 and 2.5 mM NEM, 1 h, substrate V
812C mutant of IDE = conditions: single 812C mutant, only Ni-NTA purified; cited from earlier work
IDE M2 = assay: NEM sensitivity of IDE mutant M2; type: biochemical, human; conditions: IDE M2 (C789S/C904S/C966N), 0.2 and 1 mM NEM, 1 h, substrate V
IDE M5 = assay: NEM sensitivity of IDE mutant M5; type: biochemical, human; conditions: IDE M5 (C789S/C819A/C904S/C966N), 0.2 and 1 mM NEM, 1 h, substrate V
IDE M4 = assay: NEM sensitivity of IDE mutant M4; type: biochemical, human; conditions: IDE M4 (C789S/C904S/C966N/C974A), 0.2 and 1 mM NEM, 1 h, substrate V
IDE M3 = assay: NEM sensitivity of IDE mutant M3; type: biochemical, human; conditions: IDE M3 (C812A/C819A/C904S/C966N), 0.2 and 1 mM NEM, 1 h, substrate V
IDE M1 = assay: NEM sensitivity of IDE mutant M1; type: biochemical, human; conditions: IDE M1 (C904S/C966N), 0.2 and 1 mM NEM, 1 h, substrate V
human IDE (IDE-CF) [7] = molecular target: T3, human IDE (IDE-CF) (Homo sapiens, UniProt P14735, C110L/C171S/C178A/C257V/C414L/C573N/C590S/C789S/C812A/C819A/C904S/C966N/C974A); assay: Kinetic analysis of kinin degradation by IDE-CF; type: biochemical; conditions: for kcat for degradation by IDE: IDE-CF, competition with 0.5 μM substrate V, 50 mM potassium phosphate pH 7.3, 37 °C
T3 sequence (P14735 whole entry C110L/C171S/C178A/C257V/C414L/C573N/C590S/C789S/C812A/C819A/C904S/C966N/C974A): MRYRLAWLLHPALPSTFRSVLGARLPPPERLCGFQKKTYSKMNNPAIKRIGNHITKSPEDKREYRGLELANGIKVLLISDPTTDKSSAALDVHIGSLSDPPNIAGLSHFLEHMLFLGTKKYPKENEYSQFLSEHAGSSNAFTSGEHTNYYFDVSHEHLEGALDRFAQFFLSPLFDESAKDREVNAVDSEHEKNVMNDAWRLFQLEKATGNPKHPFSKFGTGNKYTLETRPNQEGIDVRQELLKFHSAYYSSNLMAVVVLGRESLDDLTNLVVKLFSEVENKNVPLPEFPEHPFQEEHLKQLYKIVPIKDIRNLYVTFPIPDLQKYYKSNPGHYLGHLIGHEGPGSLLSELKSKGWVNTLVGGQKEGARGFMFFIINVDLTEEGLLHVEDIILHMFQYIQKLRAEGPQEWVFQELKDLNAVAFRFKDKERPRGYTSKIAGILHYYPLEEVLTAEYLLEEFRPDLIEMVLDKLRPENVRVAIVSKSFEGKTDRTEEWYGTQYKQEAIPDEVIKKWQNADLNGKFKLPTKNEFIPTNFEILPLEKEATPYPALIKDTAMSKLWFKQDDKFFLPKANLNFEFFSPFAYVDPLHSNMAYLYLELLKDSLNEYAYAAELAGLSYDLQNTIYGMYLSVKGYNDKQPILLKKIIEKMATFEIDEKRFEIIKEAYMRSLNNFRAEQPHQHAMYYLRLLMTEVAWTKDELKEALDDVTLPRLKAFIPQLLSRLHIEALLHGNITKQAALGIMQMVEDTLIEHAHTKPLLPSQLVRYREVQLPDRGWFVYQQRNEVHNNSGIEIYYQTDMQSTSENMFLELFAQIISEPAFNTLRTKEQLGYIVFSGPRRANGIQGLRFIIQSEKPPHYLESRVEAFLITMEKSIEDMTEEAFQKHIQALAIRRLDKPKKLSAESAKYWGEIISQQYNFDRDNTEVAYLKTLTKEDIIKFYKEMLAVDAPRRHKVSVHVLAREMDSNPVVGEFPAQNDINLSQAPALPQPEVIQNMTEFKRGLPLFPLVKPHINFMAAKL

human IDE (IDE-CF) [8] = molecular target: T3, human IDE (IDE-CF); assay: Mass spectrometry analysis of kinins degradation by IDE-CF; type: biochemical; conditions: for major cleavage site: 50 mM potassium phosphate pH 7.3, MALDI-TOF and MS-MS
NEP = conditions: cited from earlier work
ACE = conditions: cited from earlier work
IDE [9] = assay: Degradation of insulin and short substrates by IDE; type: biochemical; conditions: insulin 100 nM vs kinins 4–7 mM
IDE [10] = conditions: insulin; literature value, reference not given; cited from earlier work

T1 sequence (P14735 whole entry C110L/C171S/C178A/C257V/C414L/C573N/C590S/C789S/C812A/C819A/C904S/C966N/C974A): as above

Compound: 7-methoxycoumarin-4-yl-acetyl-NPPGFSAFK-2,4-dinitrophenyl [substrate V]
specific activity (IDE-CF [1]): 4.5 ± 0.1 min⁻¹
specific activity (IDE-WT [2]): 3.0 ± 0.4 min⁻¹

Compound: Nc1ncnc2c1ncn2[C@@H]1O[C@H](COP(=O)(O)OP(=O)(O)OP(=O)(O)O)[C@@H](O)[C@H]1O [ATP]
activation of IDE (in words) (IDE [3]): can activate IDE

Compound: N[C@@H](CCC(=O)N[C@@H](CSN=O)C(=O)NCC(=O)O)C(=O)O [GSNO, S-nitroso-glutathione]
inhibition by GSNO / H2O2 (in words) (IDE-CF-123): inactivated
sensitivity to GSNO / H2O2 relative to IDE-WT (in words) (IDE-CF-123): more sensitive
inhibition by GSNO / H2O2 (in words) (IDE-CF-4): relatively resistant
inactivation of IDE by NEM / H2O2 / GSNO (in words) (IDE-WT [4]): potently inactivate the catalytic activity of IDE
sensitivity to GSNO / H2O2 relative to IDE-WT (in words) (IDE-CF-A819C): more sensitive

inhibition by GSNO / H2O2 / NEM (in words) (IDE-CF [6]; cysteine-free IDE-CF, substrate V or FAβB, 1 mM reagent): insensitive to the inhibition
Compound: OO [H2O2, hydrogen peroxide]
inhibition by sulfhydryl-directed reactions (in words) (IDE [5]): sensitive to inhibition
inactivation of rat IDE (in words) (rat IDE): inactivate rat IDE
inhibition by GSNO / H2O2 (in words) (IDE-CF-123): inactivated
sensitivity to GSNO / H2O2 relative to IDE-WT (in words) (IDE-CF-123): more sensitive
inhibition by GSNO / H2O2 (in words) (IDE-CF-4): relatively resistant
inactivation of IDE by NEM / H2O2 / GSNO (in words) (IDE-WT [4]): potently inactivate the catalytic activity of IDE
sensitivity to GSNO / H2O2 relative to IDE-WT (in words) (IDE-CF-A819C): more sensitive

Compound: CCN1C(=O)C=CC1=O [NEM, N-ethyl-maleimide]
NEM sensitivity (in words) (IDE-WT-C819A): less sensitive to NEM inactivation
mode of inhibition (IDE [5]; S-alkylation of IDE by NEM): non-competitive
inhibition by sulfhydryl-directed reactions (in words) (IDE [5]): sensitive to inhibition
NEM sensitivity (in words) (IDE-CF-A812C): does not induce a similar inhibition effect as Cys 819
susceptibility to alkylation (in words) (812C mutant of IDE): susceptible to alkylation
NEM sensitivity (in words) (IDE M2): susceptibility to NEM
NEM sensitivity (in words) (IDE M5): partial resistance
NEM sensitivity relative to IDE-WT (in words) (IDE-CF-123; IDE-CF-123, 0.2 and 1 mM NEM, 1 h, substrate V): more sensitive
NEM sensitivity (in words) (IDE-CF-123; IDE-CF-123, 0.2 and 1 mM NEM, 1 h, substrate V, partially purified): highly sensitive to NEM
NEM sensitivity (in words) (IDE-CF-4; IDE-CF-4, 0.2 and 1 mM NEM, 1 h, substrate V, partially purified): significantly reduced sensitivity
loss of activity (IDE-WT [4]; IDE-WT, 1 mM NEM, 1 h, 25 °C, pH 7.2, 0.5 μM substrate V, control = buffer only): greater than 95%
NEM sensitivity (in words) (IDE-WT [4]; IDE-WT, 0.2–1 mM NEM, 1 h, substrate V): highly sensitive to inhibition by NEM
inactivation of IDE by NEM / H2O2 / GSNO (in words) (IDE-WT [4]): potently inactivate the catalytic activity of IDE
NEM sensitivity (in words) (IDE M4): susceptibility to NEM
NEM sensitivity (in words) (IDE-CF [6]; IDE-CF, 0.2–1 mM NEM, 1 h, substrate V): relatively resistant to the inactivation by NEM
NEM sensitivity (in words) (IDE M3): partial resistance
NEM sensitivity (in words) (IDE-CF-A819C; fully purified, 0.15, 0.6 and 2.5 mM NEM, 1 h, substrate V): only IDE-CF-A819C is highly sensitive to the NEM inactivation
NEM sensitivity (in words) (IDE-CF-A819C; partially purified (preliminary)): sensitivity to NEM
NEM sensitivity (in words) (IDE M1): susceptibility to NEM

kcat for degradation by IDE (human IDE (IDE-CF) [7]): around 2,000 sec^−1
affinity of IDE for kinins (in words) (human IDE (IDE-CF) [7]; inferred from Km): low affinity
minor cleavage site (human IDE (IDE-CF) [8]; 30 min incubation, MALDI-TOF peak m/z 653.32, not confirmed by MS-MS): between residues Gly^4 and Phe^5
hydrolysis by IDE (in words) (human IDE (IDE-CF) [8]; purified recombinant human IDE, 30-minute incubation, MALDI-TOF): hydrolyzed after 30-minute incubation
Compound: bradykinin: vasoactive nonapeptide hormone of the family of kinins, purchased from AnaSpec (RPPGFSPFR)
major cleavage site (human IDE (IDE-CF) [8]; 30 min incubation): at the Pro/Phe site; also recorded: between residues Pro^7 and Phe^8
cleavage of C-terminal di-peptide (NEP): Same cleavage of the C-terminal di-peptide
cleavage of C-terminal di-peptide (ACE): Same cleavage of the C-terminal di-peptide
activation of IDE (in words) (IDE [3]): activator of IDE

Compound: insulin: large peptide substrate of IDE
Km of insulin relative to kinins (IDE [9]): about five orders of magnitude lower
Km (IDE [10]): 0.1 µM

kcat for degradation by IDE (human IDE (IDE-CF) [7]): around 2,000 sec^−1
Compound: kallidin
major cleavage site (human IDE (IDE-CF) [8]; 30 min incubation): at the Pro/Phe site; also recorded: between Pro^8 and Phe^9
